The numbers were not newly measured in patent US20080280955A1, “Methods and compositions for screening and treatment of disorders of blood glucose regulation” (Perlegen Sciences, Inc., priority 2005, published 2008), which cites them from elsewhere.

Data set [1] deals with T1, PPAR-delta (Homo sapiens, UniProt Q03181).
T1 sequence (Q03181 1-441): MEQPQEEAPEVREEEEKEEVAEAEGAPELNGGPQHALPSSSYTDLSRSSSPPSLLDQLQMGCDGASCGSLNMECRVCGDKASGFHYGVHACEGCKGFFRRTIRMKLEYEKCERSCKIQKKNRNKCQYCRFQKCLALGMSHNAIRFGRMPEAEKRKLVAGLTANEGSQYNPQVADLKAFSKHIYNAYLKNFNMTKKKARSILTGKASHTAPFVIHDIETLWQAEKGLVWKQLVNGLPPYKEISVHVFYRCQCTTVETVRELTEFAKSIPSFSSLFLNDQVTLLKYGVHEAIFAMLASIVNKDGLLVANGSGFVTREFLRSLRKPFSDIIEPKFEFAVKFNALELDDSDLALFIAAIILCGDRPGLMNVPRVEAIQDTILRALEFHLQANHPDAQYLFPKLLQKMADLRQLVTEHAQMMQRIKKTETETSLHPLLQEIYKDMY

The target in data set [2] is T2, PPAR-gamma (Homo sapiens, UniProt P37231).
T2 sequence (P37231 1-505): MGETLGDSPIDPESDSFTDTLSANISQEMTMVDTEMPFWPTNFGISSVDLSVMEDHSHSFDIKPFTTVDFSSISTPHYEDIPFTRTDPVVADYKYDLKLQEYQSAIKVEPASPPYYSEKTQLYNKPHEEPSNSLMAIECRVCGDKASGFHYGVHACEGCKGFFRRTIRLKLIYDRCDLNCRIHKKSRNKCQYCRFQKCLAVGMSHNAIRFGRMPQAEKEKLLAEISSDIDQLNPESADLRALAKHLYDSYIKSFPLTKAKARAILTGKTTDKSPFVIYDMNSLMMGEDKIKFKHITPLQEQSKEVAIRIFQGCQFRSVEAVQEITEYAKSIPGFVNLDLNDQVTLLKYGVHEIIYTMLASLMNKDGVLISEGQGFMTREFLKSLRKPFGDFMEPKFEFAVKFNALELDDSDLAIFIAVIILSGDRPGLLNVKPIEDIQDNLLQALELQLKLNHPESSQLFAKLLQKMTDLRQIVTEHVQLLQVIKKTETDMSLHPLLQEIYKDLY
The conditions noted are these: context-specific, depends on cell type.

Data set [3] deals with T3, PPAR-alpha (Homo sapiens, UniProt Q07869).
T3 sequence (Q07869 1-468): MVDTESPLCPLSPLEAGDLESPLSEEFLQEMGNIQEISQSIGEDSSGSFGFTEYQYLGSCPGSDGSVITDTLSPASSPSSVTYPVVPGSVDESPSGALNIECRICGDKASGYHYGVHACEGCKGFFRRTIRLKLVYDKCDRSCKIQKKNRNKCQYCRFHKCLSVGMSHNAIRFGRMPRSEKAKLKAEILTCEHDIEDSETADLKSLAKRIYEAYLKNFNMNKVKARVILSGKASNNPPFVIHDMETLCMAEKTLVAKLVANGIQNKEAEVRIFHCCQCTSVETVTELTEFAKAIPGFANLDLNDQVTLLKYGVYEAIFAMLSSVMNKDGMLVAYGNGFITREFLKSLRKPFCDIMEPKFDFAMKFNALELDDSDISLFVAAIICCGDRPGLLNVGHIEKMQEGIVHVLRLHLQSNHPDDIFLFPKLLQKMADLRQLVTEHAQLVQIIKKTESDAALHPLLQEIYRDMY

In the case of `O=C1NC(=O)C(Cc2ccc3cc(OCc4ccccc4F)ccc3c2)S1` (centres unmarked) [netoglitazone, 5-[{6-(2-fluorobenzyl)oxy-2-naphthyl}methyl]-2,4-thiazolidinedione], where the note is “compared with pioglitazone and troglitazone”, the “efficacy in lowering plasma glucose, insulin, and triglyceride levels” value was “more efficacious than pioglitazone and troglitazone”. Further, the “potency relative to rosiglitazone” value (compared with rosiglitazone) is given as “about three-fold”. For the same compound, the “modulation of PPAR-delta” value in data set [1] is recorded as “appears to modulate”. In addition, the “behaviour at PPAR-gamma” value in data set [2] is “full agonist of PPAR-gamma and as a partial agonist or antagonist in others”. The “modulation of PPAR-alpha” value in data set [3] is “appears to modulate”.
